Results published in patent US20250152647A1, “FORMULATIONS AND METHODS FOR SKIN CARE” (AMILYFE, LLC, priority 2022, published 2025).

Experiment: Preliminary screens of amino acids
Description: In addition to the amino acid combinations described above, several other combinations are tested that include, e.g., Trp and/or Arg to determine if inclusion of these amino acids confers additional dermatological benefits. […] At the outset, the following combinations of amino acids are tested: Ala, Gln, Gly, Ser (combo #1); Ala, Gln, Gly, Ser, Val, Ile (combo #2); Ala, Gln, Gly, Ser, Val; Ala, Gln, Gly, Ser, Ile; Ala, Gln, Gly, Ser, Ile, Val, Trp; Ala, Gln, Gly, Ser, Ile, Val, Arg; and Ala, Gln, Gly, Ser, Ile, Val, Trp, Arg.

Row | Compound | effect in preliminary screens
1 | N=C(N)NCCC[C@H](N)C(=O)O [Arg, arginine] | positive effects
2 | N[C@@H](Cc1c[nH]c2ccccc12)C(=O)O [Trp, tryptophan] | positive effects
